What was measured:
Format in all cases: in vivo
Solanum nigrum (SOLNI) [1] = experiment: Pre-emergence biological efficacy, glasshouse, 1000 g/ha, evaluated after 13 days (100=total damage to plant; 0=no damage to plant); details: rate 1,000 g/ha; for pest or weed control at 1000 g/ha: Solanum nigrum, 312 h, read-out: Percentage damage caused to weed species, pre-emergence, SOLNI
In short: (§1)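 Test species are sown into pots of standard soil. Plants then grow in the glasshouse under controlled conditions (24/16° C. day/night, 14 hours light, 65% humidity) and receive water twice a day.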

Setaria faberi (SETFA) [2] = experiment: as above; details: rate 1,000 g/ha; for pest or weed control at 1000 g/ha: Setaria faberi, 312 h, read-out: Percentage damage caused to weed species, pre-emergence, SETFA
In short: as §1

[3] = system: Amaranthus retroflexus (AMARE); experiment: as above; details: rate 1,000 g/ha; for pest or weed control at 1000 g/ha: Amaranthus retroflexus, 312 h, read-out: Percentage damage caused to weed species, pre-emergence, AMARE
In short: as §1

[4] = system: Alopecurus myosuroides (ALOMY); experiment: as above; details: rate 1,000 g/ha; for pest or weed control at 1000 g/ha: Alopecurus myosuroides, 312 h, read-out: Percentage damage caused to weed species, pre-emergence, ALOMY
In short: as §1

[5] = system: Echinochloa crus-galli (ECHCG); experiment: as above; details: rate 1,000 g/ha; for pest or weed control at 1000 g/ha: Echinochloa crus-galli, 312 h, read-out: Percentage damage caused to weed species, pre-emergence, ECHCG
In short: as §1

[6] = system: Ipomoea hederaceae (IPOHE); experiment: as above; details: rate 1,000 g/ha; for pest or weed control at 1000 g/ha: Ipomoea, 312 h, read-out: Percentage damage caused to weed species, pre-emergence, IPOHE
In short: as §1

Solanum nigrum (SOLNI) [7] = experiment: Post-emergence biological efficacy, glasshouse, 500 or 1000 g/ha, evaluated after 13 days (100=total damage to plant; 0=no damage to plant); details: rate 1,000 g/ha; for pest or weed control at 1000 g/ha: Solanum nigrum, 312 h, read-out: Percentage damage caused to weed species, post-emergence, SOLNI
In short: (§2)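 Standard soil, potted from seed; post-emergence treatment; glasshouse 24/16° C. (day/night), 14 h light, 65% humidity; watering twice daily.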

Setaria faberi (SETFA) [8] = experiment: as above; details: rate 1,000 g/ha; for pest or weed control at 1000 g/ha: Setaria faberi, 312 h, read-out: Percentage damage caused to weed species, post-emergence, SETFA
In short: as §2

[9] = system: Echinochloa crusgaffi (ECHCG); experiment: as above; details: rate 1,000 g/ha; for pest or weed control at 1000 g/ha: Echinochloa, 312 h, read-out: Percentage damage caused to weed species, post-emergence, ECHCG
In short: as §2

[10] = system: Amaranthus retroflexus (AMARE); experiment: as above; details: rate 1,000 g/ha; for pest or weed control at 1000 g/ha: Amaranthus retroflexus, 312 h, read-out: Percentage damage caused to weed species, post-emergence, AMARE
In short: as §2

[11] = system: Alopecurus myosuroides (ALOMY); experiment: as above; details: rate 1,000 g/ha; for pest or weed control at 1000 g/ha: Alopecurus myosuroides, 312 h, read-out: Percentage damage caused to weed species, post-emergence, ALOMY
In short: as §2

[12] = system: Ipomoea hederaceae (IPOHE); experiment: as above; details: rate 1,000 g/ha; for pest or weed control at 1000 g/ha: Ipomoea, 312 h, read-out: Percentage damage caused to weed species, post-emergence, IPOHE
In short: as §2

For COc1c(Cl)ccc(-c2nc(C(=O)OCc3ccco3)c3c(C)c[nH]c3n2)c1F [Compound 1-87, 2-(4-Chloro-2-fluoro-3-methoxyphenyl)-4-(2-furanyl-methoxycarbonyl)-5-methy-7H-pyrrolo[2,3-d]pyrimidine], the “Percentage damage caused to weed species, pre-emergence, SOLNI” value (Solanum nigrum (SOLNI) [1]) was 20%, the “Percentage damage caused to weed species, pre-emergence, SETFA” value (Setaria faberi (SETFA) [2]) was 0% and the “Percentage damage caused to weed species, pre-emergence, AMARE” value [3] was 10%. For the same molecule, the “Percentage damage caused to weed species, pre-emergence, ALOMY” value [4] was 0%, the “Percentage damage caused to weed species, pre-emergence, ECHCG” value [5] was 0% and the “Percentage damage caused to weed species, pre-emergence, IPOHE” value [6] was 10%. For the same molecule, the “Percentage damage caused to weed species, post-emergence, SOLNI” value (Solanum nigrum (SOLNI) [7]) was 90%, the “Percentage damage caused to weed species, post-emergence, SETFA” value (Setaria faberi (SETFA) [8]) was 10% and the “Percentage damage caused to weed species, post-emergence, ECHCG” value [9] was 0%. The “Percentage damage caused to weed species, post-emergence, AMARE” value [10] was 100%, the “Percentage damage caused to weed species, post-emergence, ALOMY” value [11] was 0% and the “Percentage damage caused to weed species, post-emergence, IPOHE” value [12] was 50%.

CCCCCC(C)OC(=O)c1nc(-c2ccc(Cl)c(OC)c2F)cc2[nH]cc(C)c12 (stereo not drawn) [Compound 22-79, 6-(4-Chloro-2-fluoro-3-methoxyphenyl)-4-(hept-2-yloxycarbonyl)-3-methyl-1H-pyrrolo[3,2-c]pyridine] was tested, and the pest or weed control at 1000 g/ha (Solanum nigrum (SOLNI) [1]) was 50%, the pest or weed control at 1000 g/ha (Setaria faberi (SETFA) [2]) was 20% and the pest or weed control at 1000 g/ha [3] was 10%. For the same molecule, the pest or weed control at 1000 g/ha [4] was 10%, the pest or weed control at 1000 g/ha [5] was 10% and the pest or weed control at 1000 g/ha [6] was 30%. For the same molecule, the pest or weed control at 1000 g/ha (Solanum nigrum (SOLNI) [7]) was 70%, the pest or weed control at 1000 g/ha (Setaria faberi (SETFA) [8]) was 10% and the pest or weed control at 1000 g/ha [9] was 0%. It also gave a pest or weed control at 1000 g/ha [10] of 40%, a pest or weed control at 1000 g/ha [11] of 10% and a pest or weed control at 1000 g/ha [12] of 40%.

In the case of CCOC(=O)c1nc(-c2ccc(Cl)c(OC)c2F)nc2[nH]cc(C)c12 [Compound 1-75, 2-(4-Chloro-2-fluoro-3-methoxyphenyl)-4-ethoxycarbonyl-5-methyl-7H-pyrrolo[2,3-d]pyrimidine], the pest or weed control at 1000 g/ha (Solanum nigrum (SOLNI) [1]) is reported as 0%, the pest or weed control at 1000 g/ha (Setaria faberi (SETFA) [2]) is reported as 0% and the pest or weed control at 1000 g/ha [3] is reported as 0%. For the same molecule, the pest or weed control at 1000 g/ha [4] was 0%, the pest or weed control at 1000 g/ha [5] was 0% and the pest or weed control at 1000 g/ha [6] was 0%. For the same molecule, the pest or weed control at 1000 g/ha (Solanum nigrum (SOLNI) [7]) was 70%, the pest or weed control at 1000 g/ha (Setaria faberi (SETFA) [8]) was 0% and the pest or weed control at 1000 g/ha [9] was 0%. For the same molecule, the pest or weed control at 1000 g/ha [10] was 40%, the pest or weed control at 1000 g/ha [11] was 0% and the pest or weed control at 1000 g/ha [12] was 70%.

COc1c(Cl)ccc(-c2nc(C(=O)O)c3cc(C)n(CC4CC4)c3n2)c1F [Compound 5-65, 4-Carboxy-2-(4-chloro-2-fluoro-3-methoxyphenyl)-7-cyclopropymethyl-6-methyl-7H-pyrrolo[2,3-d]pyrimidine] showed a pest or weed control at 1000 g/ha (Solanum nigrum (SOLNI) [1]) of 0%, a pest or weed control at 1000 g/ha (Setaria faberi (SETFA) [2]) of 0% and a pest or weed control at 1000 g/ha [3] of 0%. The pest or weed control at 1000 g/ha [4] was 0%, the pest or weed control at 1000 g/ha [5] was 0% and the pest or weed control at 1000 g/ha [6] was 0%. For the same molecule, the pest or weed control at 1000 g/ha (Solanum nigrum (SOLNI) [7]) was 20%, the pest or weed control at 1000 g/ha (Setaria faberi (SETFA) [8]) was 20% and the pest or weed control at 1000 g/ha [9] was 0%. The pest or weed control at 1000 g/ha [10] was 10%, the pest or weed control at 1000 g/ha [11] was 0% and the pest or weed control at 1000 g/ha [12] was 10%.

COC(=O)c1nc(Cl)nc2c1cc(C)n2Cc1ccco1 [Compound 11-126, 2-chloro-7-(2-furanylmethyl)-4-methoxycarbonyl-6-methyl-7H-pyrrolo[2,3-d]pyrimidine] was tested, and the pest or weed control at 1000 g/ha (Solanum nigrum (SOLNI) [1]) was 0%, the pest or weed control at 1000 g/ha (Setaria faberi (SETFA) [2]) was 0% and the pest or weed control at 1000 g/ha [3] was 0%. For the same molecule, the pest or weed control at 1000 g/ha [4] was 0%, the pest or weed control at 1000 g/ha [5] was 0% and the pest or weed control at 1000 g/ha [6] was 0%. It also gave a pest or weed control at 1000 g/ha (Solanum nigrum (SOLNI) [7]) of 20%, a pest or weed control at 1000 g/ha (Setaria faberi (SETFA) [8]) of 0% and a pest or weed control at 1000 g/ha [9] of 0%. The pest or weed control at 1000 g/ha [10] was 0%, the pest or weed control at 1000 g/ha [11] was 0% and the pest or weed control at 1000 g/ha [12] was 0%.

Reference: patent US20120202690A1, “HERBICIDAL COMPOUNDS” (SYNGENTA LIMITED, priority 2009, published 2012)
